Consider 14 compounds from PubChem BioAssay AID328 (DTP/NCI, 2004).

Several values for one entry are separate records, joined by “and”; a condition that tells them apart may be missing. Equal entries are not always repeated. Toxic doses and inconclusive results are not listed.

The subject of this test is BDF1 mice, P388 leukemia ip, median survival T/C. The experiment in a line: NCI In Vivo Anticancer Drug Screen. Data for tumor model P388 Leukemia (intraperitoneal) in B6D2F1 (BDF1) mice. Particulars: endpoint: median survival time, higher = longer survival. The method in brief:
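Read-out is survival of treated animals expressed relative to the vehicle group, as a T/C ratio.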

Setting [1] is: dose: 100.0 mg/kg/injection, schedule: Q04DX003 (ip), vehicle: Klucel (hydroxypropylcellulose) (HPC).
[2] abbreviates: dose: 200.0 mg/kg/injection, schedule: Q04DX003 (ip), vehicle: Klucel (hydroxypropylcellulose) (HPC).
Setting [3] is: dose: 100.0 mg/kg/injection, schedule: Q01DX009 (ip), vehicle: saline.
Where [4] appears, read: dose: 200.0 mg/kg/injection, schedule: Q01DX009 (ip), vehicle: saline.
[5] abbreviates: dose: 400.0 mg/kg/injection, schedule: Q01DX009 (ip), vehicle: saline.
Setting [6] is: dose: 100.0 mg/kg/injection, schedule: Q04DX003 (ip), vehicle: saline.
Where [7] appears, read: dose: 400.0 mg/kg/injection, schedule: Q04DX003 (ip), vehicle: saline.

For `O=C1c2ccccc2C(=O)N1CC[P+](c1ccccc1)(c1ccccc1)c1ccccc1`, the T/C reads like this: (dose: 0.78 mg/kg/injection, schedule: Q01DX009 (ip), vehicle: water) 103 % of control; (dose: 1.56 mg/kg/injection, schedule: Q04DX003 (ip), vehicle: water) 112 % of control; (dose: 3.12 mg/kg/injection, schedule: Q04DX003 (ip), vehicle: water) 94 % of control and 123 % of control; (dose: 3.13 mg/kg/injection, schedule: Q01DX009 (ip), vehicle: Klucel (hydroxypropylcellulose) (HPC)) 165 % of control; (dose: 6.25 mg/kg/injection, schedule: Q01DX009 (ip), vehicle: Klucel (hydroxypropylcellulose) (HPC)) 151 % of control and 153 % of control; (dose: 6.25 mg/kg/injection, schedule: Q01DX009 (ip), vehicle: water) 174 % of control. Further, the T/C reads like this: (dose: 6.25 mg/kg/injection, schedule: Q04DX003 (ip), vehicle: water) 108 % of control and 120 % of control; (dose: 12.5 mg/kg/injection, schedule: Q01DX009 (ip), vehicle: Klucel (hydroxypropylcellulose) (HPC)) 157 % of control and 160 % of control; (dose: 12.5 mg/kg/injection, schedule: Q01DX009 (ip), vehicle: water) 158 % of control; (dose: 12.5 mg/kg/injection, schedule: Q04DX003 (ip), vehicle: water) 119 % of control and 120 % of control; (dose: 25.0 mg/kg/injection, schedule: Q01DX009 (ip), vehicle: Klucel (hydroxypropylcellulose) (HPC)) 90 % of control; (dose: 50.0 mg/kg/injection, schedule: Q04DX003 (ip), vehicle: water) 120 % of control.

As for `CNC(=O)Cc1[nH]ccc1C(=O)O`, the T/C runs as follows: (dose: 100.0 mg/kg/injection, schedule: Q01DX001 (ip), vehicle: saline with Tween-80) 106 % of control; (dose: 200.0 mg/kg/injection, schedule: Q01DX001 (ip), vehicle: saline with Tween-80) 103 % of control; (dose: 400.0 mg/kg/injection, schedule: Q01DX001 (ip), vehicle: saline with Tween-80) 114 % of control.

`CN(C)c1ccc(C(C#N)(c2ccc(N(C)C)cc2)c2ccc(N(C)C)cc2)cc1`: the T/C (dose: 50.0 mg/kg/injection, schedule: Q04DX003 (ip), vehicle: Klucel (hydroxypropylcellulose) (HPC)) is 100 % of control; the T/C under setting [1] is 100 % of control; the T/C under setting [2] is 95 % of control.

Take `CC[N+](CC)(CC)CC[N+](CC)(CC)CC`: the T/C runs as follows: (dose: 50.0 mg/kg/injection, schedule: Q01DX009 (ip), vehicle: saline) 95 % of control; under setting [3], 96 % of control and 88 % of control; under setting [4], 95 % of control and 91 % of control.

As for `OC1OCCOC1O` (stereo not given), the T/C is 101 % of control (dose: 17.8 mg/kg/injection, schedule: Q01DX009 (ip), vehicle: saline); 112 % of control (dose: 26.6 mg/kg/injection, schedule: Q01DX009 (ip), vehicle: saline); 110 % of control (dose: 40.0 mg/kg/injection, schedule: Q01DX009 (ip), vehicle: saline); 121 % of control (dose: 65.0 mg/kg/injection, schedule: Q01DX009 (ip), vehicle: saline); 166 % of control under setting [3]; 169 % of control (dose: 150.0 mg/kg/injection, schedule: Q01DX009 (ip), vehicle: saline). Also, the T/C (dose: 178.0 mg/kg/injection, schedule: Q01DX009 (ip), vehicle: saline) was 166 % of control; the T/C under setting [4] was 166 % of control; the T/C (dose: 266.0 mg/kg/injection, schedule: Q01DX009 (ip), vehicle: saline) was 165 % of control; the T/C under setting [5] was 157 % of control and 161 % of control and 168 % of control.

In the case of `ClCc1c2ccccc2c(CCl)c2ccccc12`, the T/C (dose: 0.21 mg/kg/injection, schedule: Q01DX009 (ip), vehicle: saline) is 154 % of control; the T/C (dose: 0.33 mg/kg/injection, schedule: Q01DX009 (ip), vehicle: saline) was 159 % of control and 190 % of control; the T/C (dose: 0.49 mg/kg/injection, schedule: Q01DX009 (ip), vehicle: saline) was 154 % of control; the T/C (dose: 1.3 mg/kg/injection, schedule: Q04DX003 (ip), vehicle: Klucel (hydroxypropylcellulose) (HPC)) was 150 % of control; the T/C (dose: 1.35 mg/kg/injection, schedule: Q01DX009 (ip), vehicle: saline) was 180 % of control; the T/C (dose: 1.5 mg/kg/injection, schedule: Q01DX009 (ip), vehicle: Klucel (hydroxypropylcellulose) (HPC)) was 153 % of control. In addition, the T/C (dose: 2.0 mg/kg/injection, schedule: Q04DX003 (ip), vehicle: Klucel (hydroxypropylcellulose) (HPC)) was 170 % of control; the T/C (dose: 3.0 mg/kg/injection, schedule: Q01DX009 (ip), vehicle: Klucel (hydroxypropylcellulose) (HPC)) is 157 % of control and 200 % of control; the T/C (dose: 3.0 mg/kg/injection, schedule: Q04DX003 (ip), vehicle: Klucel (hydroxypropylcellulose) (HPC)) was 154 % of control and 166 % of control; the T/C (dose: 5.0 mg/kg/injection, schedule: Q04DX003 (ip), vehicle: Klucel (hydroxypropylcellulose) (HPC)) is 168 % of control; the T/C (dose: 6.0 mg/kg/injection, schedule: Q01DX009 (ip), vehicle: Klucel (hydroxypropylcellulose) (HPC)) is 105 % of control; the T/C (dose: 8.0 mg/kg/injection, schedule: Q04DX003 (ip), vehicle: Klucel (hydroxypropylcellulose) (HPC)) is 154 % of control and 172 % of control. For the same compound, the T/C (dose: 12.0 mg/kg/injection, schedule: Q04DX003 (ip), vehicle: Klucel (hydroxypropylcellulose) (HPC)) is 177 % of control.

On to `CCCCCCCCCCCCC1CC(=O)OC1=O` (stereo not given), for which the T/C (dose: 75.0 mg/kg/injection, schedule: Q01DX009 (ip), vehicle: Klucel (hydroxypropylcellulose) (HPC)) was 90 % of control; the T/C under setting [1] is 104 % of control; the T/C under setting [6] was 108 % of control; the T/C (dose: 150.0 mg/kg/injection, schedule: Q01DX009 (ip), vehicle: Klucel (hydroxypropylcellulose) (HPC)) is 90 % of control; the T/C under setting [2] is 109 % of control; the T/C (dose: 300.0 mg/kg/injection, schedule: Q01DX009 (ip), vehicle: Klucel (hydroxypropylcellulose) (HPC)) is 109 % of control. In addition, the T/C reads like this: (dose: 400.0 mg/kg/injection, schedule: Q04DX003 (ip), vehicle: Klucel (hydroxypropylcellulose) (HPC)) 100 % of control; under setting [7], 120 % of control.

Regarding `Oc1ccc(Cl)c2cccnc12`, the T/C by setting is: (dose: 12.5 mg/kg/injection, schedule: Q01DX010 (ip), vehicle: carboxymethylcellulose (CMC)) 104 % of control; (dose: 25.0 mg/kg/injection, schedule: Q01DX010 (ip), vehicle: carboxymethylcellulose (CMC)) 104 % of control; (dose: 50.0 mg/kg/injection, schedule: Q01DX010 (ip), vehicle: carboxymethylcellulose (CMC)) 109 % of control.

On to `CC(C)(C)NCC(O)c1cc(C(F)(F)F)nc2c(C(F)(F)F)cccc12` (stereo not given), for which the T/C by setting is: (dose: 50.0 mg/kg/injection, schedule: Q01DX009 (ip), vehicle: saline with Tween-80) 100 % of control; (dose: 100.0 mg/kg/injection, schedule: Q01DX009 (ip), vehicle: saline with Tween-80) 100 % of control; (dose: 200.0 mg/kg/injection, schedule: Q01DX009 (ip), vehicle: saline with Tween-80) 97 % of control.

As to `C#CCCCOC(=O)Nc1ccccc1`, the T/C was 90 % of control (dose: 50.0 mg/kg/injection, schedule: Q01DX009 (ip), vehicle: Klucel (hydroxypropylcellulose) (HPC)) and 90 % of control (dose: 100.0 mg/kg/injection, schedule: Q01DX009 (ip), vehicle: Klucel (hydroxypropylcellulose) (HPC)).

With `Cc1ccc(C(CC(=O)O)CC(=O)O)c(O)c1`, the T/C was 100 % of control (dose: 100.0 mg/kg/injection, schedule: Q01DX009 (ip), vehicle: gum acacia); 111 % of control (dose: 100.0 mg/kg/injection, schedule: Q04DX003 (ip), vehicle: gum acacia); 103 % of control (dose: 200.0 mg/kg/injection, schedule: Q01DX009 (ip), vehicle: gum acacia); 103 % of control (dose: 200.0 mg/kg/injection, schedule: Q04DX003 (ip), vehicle: gum acacia); 89 % of control (dose: 400.0 mg/kg/injection, schedule: Q01DX009 (ip), vehicle: gum acacia); 88 % of control (dose: 400.0 mg/kg/injection, schedule: Q04DX003 (ip), vehicle: gum acacia).

`CCCCCCCCN1CCCNCC1`: the T/C (dose: 25.0 mg/kg/injection, schedule: Q01DX009 (ip), vehicle: saline) is 100 % of control.

For the compound `CCN(CCNc1ccc(C)c2sc3cc(Cl)ccc3c(=O)c12)CC(C)O` (stereo not given), the T/C is 109 % of control under setting [3] and 104 % of control under setting [4].

Take `CCOC(=O)CCN1CCCC1`: the T/C is, setting by setting: under setting [3], 100 % of control; under setting [6], 100 % of control; under setting [4], 91 % of control; (dose: 200.0 mg/kg/injection, schedule: Q04DX003 (ip), vehicle: saline) 100 % of control; under setting [5], 100 % of control; under setting [7], 95 % of control.
